Measured values from ChEMBL document CHEMBL1151192, “Phorbasterones A-D, cytotoxic nor-ring A steroids from the sponge Phorbas amaranthus” (J Nat Prod, 2004).
In brackets after ≈: the same amount, converted by molar mass.

Tested on: HCT-116
Test: Cytotoxicity against human HCT116 cells after 72 hrs by MTS assay
Format: functional, cell-based
Settings: HCT-116, 72 h

Row | SMILES | IC50
1 | COC(=O)[C@]1(O)C[C@@]2(C)C(=CC[C@H]3[C@@H]4CC[C@H]([C@H](C)CCCC(C)C)[C@@]4(C)CC[C@@H]32)C1=O [PHORBASTERONE B] | 1 µg/mL (≈ 2.25 µM)
2 | CCC(CC[C@@H](C)[C@H]1CC[C@H]2[C@@H]3CC=C4C(=O)[C@](O)(C(=O)OC)C[C@]4(C)[C@H]3CC[C@]12C)C(C)C (mixture of isomers) [PHORBASTERONE D] | 1 µg/mL
3 | CCC(/C=C/[C@@H](C)[C@H]1CC[C@H]2[C@@H]3CC=C4C(=O)[C@](O)(C(=O)OC)C[C@]4(C)[C@H]3CC[C@]12C)C(C)C (mixture of isomers) [PHORBASTERONE C] | 1 µg/mL
4 | COC(=O)[C@]1(O)C[C@@]2(C)C(=CC[C@H]3[C@@H]4CC[C@H]([C@H](C)/C=C/C(C)C(C)C)[C@@]4(C)CC[C@@H]32)C1=O (some centres undefined) [PHORBASTERONE A] | 1 µg/mL (≈ 2.19 µM)
